Data published in ChEMBL document CHEMBL1146775 (2004).
Active and inactive are the calls of the source.

Experiments:
[1] = molecular target: Muscarinic acetylcholine receptor M3 (Cavia porcellus) (UniProt Q8VH26); conditions: Ileum
[2] = Maximal rate of vascular endothelium-dependent relaxation at the concentration of 10E-5 M/L; 30-50%; conditions: Oryctolagus cuniculus
[3] = Maximal rate of vascular endothelium-dependent relaxation at the concentration of 10E-5 M/L; 0-10%; conditions: Oryctolagus cuniculus
[4] = Maximal rate of vascular endothelium-dependent relaxation at the concentration of 10E-5 M/L; […]; conditions: Oryctolagus cuniculus
[5] = Maximal rate of vascular endothelium-dependent relaxation at the concentration of 10E-5 M/L; - = no activity; conditions: Oryctolagus cuniculus
[6] = Maximal rate of vascular endothelium-dependent relaxation at the concentration of 10E-5 M/L; conditions: Oryctolagus cuniculus
Oryctolagus cuniculus [7] = assay: Vascular relaxation of rabbit carotid model at 0.1 M/L concentration with 5 mg/kg PPVP; type: functional
Oryctolagus cuniculus [8] = organism: Oryctolagus cuniculus; assay: Vascular relaxation of rabbit carotid model (high lipid diet) at 0.1 M/L concentration; type: functional
Rattus norvegicus [9] = organism: Rattus norvegicus; assay: Rate of relaxation of Atropine treated rat aorta; type: functional
Rattus norvegicus [10] = organism: Rattus norvegicus; assay: Rate of relaxation of endothelium denuded rat aorta; type: functional
Rattus norvegicus [11] = organism: Rattus norvegicus; assay: Rate of relaxation of endothelium intact rat aorta; type: functional
Rattus norvegicus [12] = organism: Rattus norvegicus; assay: Rate of relaxation of L-NAME treated rat aorta; type: functional
Rattus norvegicus [13] = organism: Rattus norvegicus; assay: Rate of relaxation of Indomethacin treated rat aorta; type: functional

Muscarinic acetylcholine receptor M3 (Cavia porcellus), sequence (Q8VH26 1-587): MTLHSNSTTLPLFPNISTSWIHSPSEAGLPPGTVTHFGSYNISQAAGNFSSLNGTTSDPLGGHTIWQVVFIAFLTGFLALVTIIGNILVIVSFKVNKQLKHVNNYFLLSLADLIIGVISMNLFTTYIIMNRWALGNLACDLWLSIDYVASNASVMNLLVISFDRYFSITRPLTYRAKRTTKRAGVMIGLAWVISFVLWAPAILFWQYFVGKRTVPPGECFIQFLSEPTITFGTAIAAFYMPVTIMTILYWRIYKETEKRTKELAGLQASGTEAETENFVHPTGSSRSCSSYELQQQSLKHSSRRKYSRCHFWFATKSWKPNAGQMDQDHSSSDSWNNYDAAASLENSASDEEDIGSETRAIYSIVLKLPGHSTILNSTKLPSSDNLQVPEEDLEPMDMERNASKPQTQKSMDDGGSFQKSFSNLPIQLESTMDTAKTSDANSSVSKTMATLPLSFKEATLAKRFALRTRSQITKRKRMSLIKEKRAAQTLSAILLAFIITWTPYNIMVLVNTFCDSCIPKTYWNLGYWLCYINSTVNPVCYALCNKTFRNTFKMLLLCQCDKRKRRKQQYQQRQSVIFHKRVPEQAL

Compound: COc1cc(C(C#N)N2CCOCC2)cc(OC)c1OC (stereo not drawn)
- Contraction [1]: inactive
- Relaxation [2]: 50%

Compound: COC(=O)CCN1CCCCC1
- Contraction [1]: inactive
- Relaxation [3]: 10%

Compound: N#CC(c1ccccc1Cl)N1CCOCC1 (stereo not drawn)
- Contraction [1]: inactive
- Relaxation [2]: 50%

Compound: CCOP(=O)(OCC)C(c1ccc(O)cc1)N1CCOCC1 (stereo not drawn)
- Contraction [1]: inactive
- Relaxation [3]: 10%

Compound: CCOP(=O)(OCC)C(c1cc(Br)cc(Br)c1O)N1CCN(c2ccccn2)CC1 (stereo not drawn)
- Contraction [1]: inactive
- Relaxation [4]: 30%

Compound: O=C1CN2CCC1CC2
- Contraction [1]: inactive
- Relaxation [5]: inactive

Compound: CCOP(=O)(OCC)C(c1cc([N+](=O)[O-])ccc1O)N1CCOCC1 (stereo not drawn)
- Contraction [1]: inactive
- Relaxation [4]: 30%

Compound: CCOP(=O)(OCC)C(c1cc(OC)c(O)c(OC)c1)N1CCN(C)CC1 (stereo not drawn)
- Contraction [1]: inactive
- Relaxation [4]: 30%

Compound: COC(=O)[C@@H]1C[C@@H](O)CN1
- Contraction [1]: inactive
- Relaxation [4]: 30%

Compound: COC(=O)C1CC2C(=O)C=CC1N2Cc1ccccc1 (stereo not drawn)
- Contraction [1]: inactive
- Relaxation [3]: 10%

Compound: COC(=O)C1CN(Cc2ccccc2)CCN1Cc1ccccc1 (stereo not drawn)
- Contraction [1]: inactive
- Relaxation [4]: 30%

Compound: CN1CCN(C(C#N)c2ccc(F)cc2)CC1 (stereo not drawn)
- Contraction [1]: inactive
- Relaxation [2]: 50%

Compound: CCOC(=O)CN1CCOCC1
- Contraction [1]: inactive
- Relaxation [3]: 10%

Compound: COC(=O)CCCCN1CCOCC1
- Contraction [1]: inactive
- Relaxation [2]: 50%

Compound: CN1CCN(C(C#N)c2ccco2)CC1 (stereo not drawn)
- Contraction [1]: inactive
- Relaxation [3]: 10%

Compound: CCOP(=O)(OCC)C(c1cc(OC)c(O)c(OC)c1)N1CCOCC1 (stereo not drawn)
- Contraction [1]: inactive
- Relaxation [2]: 50%

Compound: N#CC1CN(Cc2ccccc2)CCN1Cc1ccccc1 (stereo not drawn)
- Contraction [1]: inactive
- Relaxation [4]: 30%

Compound: C=CCN1CCN(C)CC1
- Relaxation [4]: 30%

Compound: COc1cc(C(C#N)N2CCN(C)CC2)c([N+](=O)[O-])cc1OC (stereo not drawn)
- Contraction [1]: inactive
- Relaxation [6]: > 50%

Compound: N#CC(c1cccc(F)c1)N1CCOCC1 (stereo not drawn)
- Contraction [1]: inactive
- Relaxation [2]: 50%

Compound: Cc1cccc(C(C#N)N2CCOCC2)c1 (stereo not drawn)
- Contraction [1]: inactive
- Relaxation [4]: 30%

Compound: CN1CCN(C(C#N)c2cccs2)CC1 (stereo not drawn)
- Contraction [1]: inactive
- Relaxation [4]: 30%

Compound: COc1cc(C(C#N)N2CCN(C)CC2)cc(OC)c1OC (stereo not drawn)
- Contraction [1]: inactive
- Relaxation [6]: > 50%

Compound: CCOP(=O)(OCC)C(c1ccc(O)c(OC)c1[N+](=O)[O-])N1CCN(C)CC1 (stereo not drawn)
- Contraction [1]: inactive
- Relaxation [3]: 10%

Compound: Cc1ccc(C(C#N)N2CCOCC2)cc1 (stereo not drawn)
- Contraction [1]: inactive
- Relaxation [4]: 30%

Compound: CN1CCN(CCC#N)CC1
- Contraction [1]: inactive
- Relaxation [5]: inactive

Compound: CN1C2CC=C(C#N)C1CC2 (stereo not drawn)
- Contraction [1]: inactive
- Relaxation [3]: 10%

Compound: N#CC(c1ccc(F)cc1)N1CCOCC1 (stereo not drawn)
- Contraction [1]: inactive
- Relaxation [4]: 30%

Compound: Cc1ccc(C(C#N)N2CCN(C)CC2)cc1 (stereo not drawn)
- Contraction [1]: inactive
- Relaxation [4]: 30%

Compound: CN1CCN(C(C#N)c2c(F)cccc2Cl)CC1 (stereo not drawn)
- Contraction [1]: inactive
- Relaxation [4]: 30%

Compound: CN1CCN(CC#N)CC1
- Contraction [1]: inactive
- Relaxation [2]: 50%

Compound: N#CC(c1ccccc1F)N1CCOCC1 (stereo not drawn)
- Contraction [1]: inactive
- Relaxation [4]: 30%

Compound: N#CC1CC2C(=O)C=CC1N2Cc1ccccc1 (stereo not drawn)
- Contraction [1]: inactive
- Relaxation [5]: inactive

Compound: COC(=O)CCN1CCN(C)CC1
- Contraction [1]: inactive
- Relaxation [5]: inactive

Compound: CN1CCN(C(C#N)c2ccc3c(c2)OCO3)CC1 (stereo not drawn)
- Contraction [1]: inactive
- Relaxation [4]: 30%

Compound: CCOC(=O)CN1CCN(C)CC1
- Contraction [1]: inactive
- Relaxation [4]: 30%

Compound: CCOP(=O)(OCC)C(c1cc([N+](=O)[O-])ccc1O)N1CCN(C)CC1 (stereo not drawn)
- Contraction [1]: inactive
- Relaxation [4]: 30%

Compound: CCOP(=O)(OCC)C(c1cc(Cl)cc(Cl)c1O)N1CCN(c2ccccn2)CC1 (stereo not drawn)
- Contraction [1]: inactive
- Relaxation [6]: > 50%

Compound: CN1CCN(C(C#N)c2ccccc2Cl)CC1 (stereo not drawn)
- Contraction [1]: inactive
- Relaxation [3]: 10%

Compound: N#CC(c1cccs1)N1CCOCC1 (stereo not drawn)
- Contraction [1]: inactive
- Relaxation [3]: 10%

Compound: CN1CCN(C(C#N)c2ccc(Cl)c(F)c2)CC1 (stereo not drawn)
- Contraction [1]: inactive
- Relaxation [5]: inactive

Compound: CC(=O)OCC[N+](C)(C)C [ACETYLCHOLINE]
- Relaxation (Oryctolagus cuniculus [7]): 65.9%
- Relaxation (Oryctolagus cuniculus [8]): 32.2%

Compound: N#CCCN1CCCCC1
- Contraction [1]: inactive
- Relaxation [5]: inactive

Compound: N#CCN1CCOCC1
- Contraction [1]: inactive
- Relaxation [2]: 50%

Compound: Cc1cccc(C(C#N)N2CCN(C)CC2)c1 (stereo not drawn)
- Contraction [1]: inactive
- Relaxation [3]: 10%

Compound: CCOP(=O)(OCC)C(c1ccc(O)c(OC)c1)N1CCN(c2ccccn2)CC1.Cl (stereo not drawn)
- Contraction [1]: inactive
- Relaxation [6]: > 50%
- Relaxation (Rattus norvegicus [9]): 85.7%
- Relaxation (Rattus norvegicus [10]): 13.9%
- Relaxation (Rattus norvegicus [11]): 81.4%
- Relaxation (Rattus norvegicus [12]): 28.8%
- Relaxation (Rattus norvegicus [13]): 23.8%

Compound: CN1CCN(C(C#N)c2cccc(F)c2)CC1 (stereo not drawn)
- Contraction [1]: inactive
- Relaxation [2]: 50%

Compound: CN1CCN(C(C#N)c2cc3c(cc2Cl)OCO3)CC1 (stereo not drawn)
- Contraction [1]: inactive
- Relaxation [3]: 10%

Compound: CN1C2CC=C(C(N)=O)C1CC2 (stereo not drawn)
- Contraction [1]: inactive
- Relaxation [4]: 30%

Compound: O=C(CN1CCOCC1)Nc1c(Cl)cccc1Cl
- Contraction [1]: inactive
- Relaxation [4]: 30%

Compound: CN1CCN(Cc2nn[nH]n2)CC1
- Contraction [1]: inactive
- Relaxation [4]: 30%

Compound: CCOP(=O)(OCC)C(c1ccc(O)cc1)N1CCN(c2ccccn2)CC1 (stereo not drawn)
- Contraction [1]: inactive
- Relaxation [3]: 10%

Compound: N#CC(NCc1ccccc1)c1ccc2c(c1)OCO2 (stereo not drawn)
- Contraction [1]: inactive
- Relaxation [3]: 10%

Compound: CCN(CC)CCC(=O)OC
- Contraction [1]: inactive
- Relaxation [5]: inactive

Compound: N#CC1(O)CN2CCC1CC2 (stereo not drawn)
- Contraction [1]: inactive
- Relaxation [5]: inactive

Compound: CN1CCN(CC(=O)Nc2c(Cl)cccc2Cl)CC1
- Contraction [1]: inactive
- Relaxation [3]: 10%

Compound: N#CC(c1ccc(Cl)c(F)c1)N1CCOCC1 (stereo not drawn)
- Contraction [1]: inactive
- Relaxation [5]: inactive

Compound: O=C(CCN1CCOCC1)c1ccc([N+](=O)[O-])cc1
- Contraction [1]: inactive
- Relaxation [4]: 30%

Compound: C#CCN1CCOCC1
- Contraction [1]: inactive
- Relaxation [5]: inactive

Compound: CCOP(=O)(OCC)C(c1ccc(O)cc1)N1CCN(C)CC1 (stereo not drawn)
- Contraction [1]: inactive
- Relaxation [4]: 30%

Compound: N#CC(c1ccco1)N1CCOCC1 (stereo not drawn)
- Contraction [1]: inactive
- Relaxation [3]: 10%

Compound: NC(=O)CCN1CCOCC1
- Contraction [1]: inactive
- Relaxation [5]: inactive

Compound: CNC(=O)CCN1CCCCC1
- Contraction [1]: inactive
- Relaxation [5]: inactive

Compound: CN1CCN(C(C#N)c2ccccc2F)CC1 (stereo not drawn)
- Contraction [1]: inactive
- Relaxation [2]: 50%

Compound: COC(=O)CCCN1CCOCC1
- Contraction [1]: inactive
- Relaxation [5]: inactive

Compound: Cc1ccccc1C(C#N)N1CCN(C)CC1 (stereo not drawn)
- Contraction [1]: inactive
- Relaxation [3]: 10%

Compound: Cc1ccccc1C(C#N)N1CCOCC1 (stereo not drawn)
- Contraction [1]: inactive
- Relaxation [4]: 30%

Compound: N#CCCN1CCOCC1
- Contraction [1]: inactive
- Relaxation [5]: inactive

Compound: CCOP(=O)(OCC)C(c1ccc(O)c(OC)c1[N+](=O)[O-])N1CCOCC1 (stereo not drawn)
- Contraction [1]: inactive
- Relaxation [3]: 10%

Compound: C#CCN1CCN(C)CC1
- Contraction [1]: inactive
- Relaxation [4]: 30%

Compound: CCOP(=O)(OCC)C(c1ccc(O)c(OC)c1)N1CCN(C)CC1 (stereo not drawn)
- Contraction [1]: inactive
- Relaxation [4]: 30%

Compound: CCOP(=O)(OCC)C(c1cc(OC)c(O)c(OC)c1)N1CCN(c2ccccn2)CC1.Cl (stereo not drawn)
- Contraction [1]: inactive
- Relaxation [6]: > 50%
- Relaxation (Rattus norvegicus [9]): 82.6%
- Relaxation (Rattus norvegicus [10]): 5.7%
- Relaxation (Rattus norvegicus [11]): 84%
- Relaxation (Rattus norvegicus [12]): 26.2%
- Relaxation (Rattus norvegicus [13]): 14.2%

Compound: CCOP(=O)(OCC)C(c1ccc(O)c(OC)c1)N1CCOCC1 (stereo not drawn)
- Contraction [1]: inactive
- Relaxation [4]: 30%

Compound: N#CC(c1ccc2c(c1)OCO2)N1CCOCC1 (stereo not drawn)
- Contraction [1]: inactive
- Relaxation [4]: 30%

Compound: CN1CCN(CCC(N)=O)CC1
- Contraction [1]: inactive
- Relaxation [5]: inactive

Compound: N#CC(NCc1ccccc1)c1ccco1 (stereo not drawn)
- Contraction [1]: inactive
- Relaxation [3]: 10%

Compound: N#CCN1CCCCC1
- Contraction [1]: inactive

Compound: O/N=C1\CN2CCC1CC2
- Contraction [1]: inactive
- Relaxation [5]: inactive

Compound: CNC(=O)CCN1CCOCC1
- Contraction [1]: inactive
- Relaxation [5]: inactive

Compound: N#CC(c1c(F)cccc1Cl)N1CCOCC1 (stereo not drawn)
- Contraction [1]: inactive
- Relaxation [3]: 10%
